Laboratory results taken from PubChem BioAssay AID328 (DTP/NCI, 2004).
Values joined by “and” are separate entries in the source; they are usually repeats but may differ in a detail not shown here. Equal entries are not always repeated. Toxic doses and inconclusive results are not listed.

Test system: BDF1 mice, P388 leukemia ip, median survival T/C
Assay: NCI In Vivo Anticancer Drug Screen. Data for tumor model P388 Leukemia (intraperitoneal) in B6D2F1 (BDF1) mice
Conditions: endpoint: median survival time, higher = longer survival
Experimental: The antitumor activity of compounds was measured in mice bearing transplantable tumors. Survival or tumor size were measured and the results are expressed as the measurement made in the treated group (T) divided by the measurement made in the vehicle treated control group (C). The tumor model used in this assay is P388 Leukemia (intraperitoneal) in B6D2F1 (BDF1) mice

[1] = dose: 12.5 mg/kg/injection, schedule: Q01DX009 (ip), vehicle: water
[2] = dose: 25.0 mg/kg/injection, schedule: Q01DX009 (ip), vehicle: water
[3] = dose: 50.0 mg/kg/injection, schedule: Q04DX003 (ip), vehicle: water
[4] = dose: 100.0 mg/kg/injection, schedule: Q01DX009 (ip), vehicle: water
[5] = dose: 100.0 mg/kg/injection, schedule: Q04DX003 (ip), vehicle: water
[6] = dose: 100.0 mg/kg/injection, schedule: Q01DX009 (ip), vehicle: Klucel (hydroxypropylcellulose) (HPC)
[7] = dose: 200.0 mg/kg/injection, schedule: Q01DX009 (ip), vehicle: Klucel (hydroxypropylcellulose) (HPC)
[8] = dose: 400.0 mg/kg/injection, schedule: Q01DX009 (ip), vehicle: Klucel (hydroxypropylcellulose) (HPC)
[9] = dose: 50.0 mg/kg/injection, schedule: Q01DX009 (ip), vehicle: saline
[10] = dose: 100.0 mg/kg/injection, schedule: Q01DX009 (ip), vehicle: saline
[11] = dose: 200.0 mg/kg/injection, schedule: Q01DX009 (ip), vehicle: saline
[12] = dose: 50.0 mg/kg/injection, schedule: Q01DX009 (ip), vehicle: saline with Tween-80
[13] = dose: 100.0 mg/kg/injection, schedule: Q01DX009 (ip), vehicle: saline with Tween-80
[14] = dose: 200.0 mg/kg/injection, schedule: Q01DX009 (ip), vehicle: saline with Tween-80

Question: `O=C(NO)Nc1nc(Cl)c(Cl)nc1Cl` was tested. Which T/C (dose: 3.12 mg/kg/injection, schedule: Q01DX009 (ip), vehicle: water) did it give?
Answer: 104 % of control

Question: And the T/C (dose: 6.25 mg/kg/injection, schedule: Q01DX009 (ip), vehicle: water)?
Answer: 110 % of control

Question: What about the T/C (dose: 6.25 mg/kg/injection, schedule: Q04DX003 (ip), vehicle: water) of the same molecule?
Answer: 98 % of control and 101 % of control

Question: And the T/C [1]?
Answer: 110 % of control

Question: What about the T/C (dose: 12.5 mg/kg/injection, schedule: Q04DX003 (ip), vehicle: water) of the same molecule?
Answer: 100 % of control and 113 % of control

Question: And the T/C [2]?
Answer: 118 % of control

Question: What about the T/C (dose: 25.0 mg/kg/injection, schedule: Q04DX003 (ip), vehicle: water) of the same molecule?
Answer: 98 % of control and 118 % of control

Question: What about the T/C [3] of the same molecule?
Answer: 100 % of control and 109 % of control

Question: And the T/C [4]?
Answer: 118 % of control

Question: What about the T/C [5] of the same molecule?
Answer: 109 % of control

Question: `O=C(N/N=C/C=C/c1ccccc1)[C@H](O)[C@@H](O)C(=O)N/N=C/C=C/c1ccccc1` was tested. Which T/C [6] did it give?
Answer: 88 % of control

Question: And the T/C [7]?
Answer: 96 % of control

Question: And the T/C [8]?
Answer: 92 % of control

Question: What does the source list for `ON=C1CSSC1`?
Answer: T/C (dose: 0.78 mg/kg/injection, schedule: Q01DX009 (ip), vehicle: saline with Tween-80): 100 % of control; T/C (dose: 0.78 mg/kg/injection, schedule: Q04DX003 (ip), vehicle: saline with Tween-80): 106 % of control; T/C (dose: 1.56 mg/kg/injection, schedule: Q01DX009 (ip), vehicle: saline with Tween-80): 102 % of control; T/C (dose: 1.56 mg/kg/injection, schedule: Q04DX003 (ip), vehicle: saline with Tween-80): 100 % of control; T/C (dose: 3.12 mg/kg/injection, schedule: Q01DX009 (ip), vehicle: saline with Tween-80): 109 % of control; T/C (dose: 3.12 mg/kg/injection, schedule: Q04DX003 (ip), vehicle: saline with Tween-80): 99 % of control and 104 % of control; T/C (dose: 6.25 mg/kg/injection, schedule: Q01DX009 (ip), vehicle: saline with Tween-80): 90 % of control; T/C (dose: 6.25 mg/kg/injection, schedule: Q04DX003 (ip), vehicle: saline with Tween-80): 100 % of control and 104 % of control; T/C (dose: 12.5 mg/kg/injection, schedule: Q01DX009 (ip), vehicle: saline with Tween-80): 102 % of control; T/C (dose: 12.5 mg/kg/injection, schedule: Q04DX003 (ip), vehicle: saline with Tween-80): 99 % of control and 106 % of control

Question: What does the source list for `CC(=O)OCC(=O)C1CCC=CC1OC(C)=O` (stereo unspecified)?
Answer: T/C (dose: 25.0 mg/kg/injection, schedule: Q01DX009 (ip), vehicle: saline): 92 % of control; T/C [9]: 104 % of control; T/C (dose: 50.0 mg/kg/injection, schedule: Q04DX003 (ip), vehicle: saline): 95 % of control; T/C [10]: 98 % of control; T/C (dose: 100.0 mg/kg/injection, schedule: Q04DX003 (ip), vehicle: saline): 101 % of control; T/C [11]: 104 % of control; T/C (dose: 200.0 mg/kg/injection, schedule: Q04DX003 (ip), vehicle: saline): 98 % of control and 120 % of control; T/C (dose: 400.0 mg/kg/injection, schedule: Q01DX009 (ip), vehicle: saline): 88 % of control; T/C (dose: 400.0 mg/kg/injection, schedule: Q04DX003 (ip), vehicle: saline): 93 % of control and 117 % of control

Question: Which T/C (dose: 50.0 mg/kg/injection, schedule: Q01DX001 (ip), vehicle: saline with Tween-80) does the source give for `O=S(=O)(CBr)N1CCOCC1` here?
Answer: 95 % of control

Question: And the T/C (dose: 100.0 mg/kg/injection, schedule: Q01DX001 (ip), vehicle: saline with Tween-80)?
Answer: 100 % of control

Question: What about the T/C (dose: 200.0 mg/kg/injection, schedule: Q01DX001 (ip), vehicle: saline with Tween-80) of the same molecule?
Answer: 108 % of control

Question: `COC(=O)/C(=C/c1ccccc1)c1ccccc1` was tested. Which T/C [12] did it give?
Answer: 101 % of control

Question: And the T/C [13]?
Answer: 99 % of control

Question: And the T/C [14]?
Answer: 96 % of control

Question: `O=S(=O)(O/C1=C/CCCCCC1)C(F)(F)C(F)(F)C(F)(F)C(F)(F)F` was tested. Which T/C [9] did it give?
Answer: 107 % of control

Question: And the T/C [10]?
Answer: 109 % of control

Question: What about the T/C [11] of the same molecule?
Answer: 109 % of control

Question: Which T/C (dose: 3.75 mg/kg/injection, schedule: Q01DX009 (ip), vehicle: saline) does the source give for `CCN1c2ccccc2C(Cl)(c2ccc(N(C)C)cc2)c2ccccc21` here?
Answer: 118 % of control

Question: What about the T/C (dose: 6.25 mg/kg/injection, schedule: Q04DX003 (ip), vehicle: saline) of the same molecule?
Answer: 100 % of control

Question: And the T/C (dose: 7.5 mg/kg/injection, schedule: Q01DX009 (ip), vehicle: saline)?
Answer: 118 % of control

Question: And the T/C (dose: 12.5 mg/kg/injection, schedule: Q04DX003 (ip), vehicle: saline)?
Answer: 116 % of control

Question: And the T/C (dose: 25.0 mg/kg/injection, schedule: Q04DX003 (ip), vehicle: saline)?
Answer: 116 % of control

Question: `BrCCC1(CCBr)CCCCC1` was tested. Which T/C [1] did it give?
Answer: 113 % of control

Question: And the T/C [2]?
Answer: 97 % of control

Question: What about the T/C (dose: 50.0 mg/kg/injection, schedule: Q01DX009 (ip), vehicle: water) of the same molecule?
Answer: 96 % of control

Question: What about the T/C [3] of the same molecule?
Answer: 106 % of control

Question: What about the T/C [4] of the same molecule?
Answer: 99 % of control

Question: What about the T/C [5] of the same molecule?
Answer: 111 % of control

Question: What about the T/C (dose: 200.0 mg/kg/injection, schedule: Q01DX009 (ip), vehicle: water) of the same molecule?
Answer: 108 % of control

Question: And the T/C (dose: 200.0 mg/kg/injection, schedule: Q04DX003 (ip), vehicle: water)?
Answer: 106 % of control

Question: What about the T/C (dose: 300.0 mg/kg/injection, schedule: Q04DX003 (ip), vehicle: water) of the same molecule?
Answer: 107 % of control

Question: And the T/C (dose: 400.0 mg/kg/injection, schedule: Q01DX009 (ip), vehicle: water)?
Answer: 118 % of control

Question: And the T/C (dose: 400.0 mg/kg/injection, schedule: Q04DX003 (ip), vehicle: water)?
Answer: 122 % of control

Question: What about the T/C (dose: 500.0 mg/kg/injection, schedule: Q04DX003 (ip), vehicle: water) of the same molecule?
Answer: 109 % of control

Question: Which results are given for `Cn1c(-c2ccccc2)c2c(c1-c1ccccc1)CCCC2`?
Answer: T/C (dose: 100.0 mg/kg/injection, schedule: Q04DX002 (ip), vehicle: saline with Tween-80): 88 % of control; T/C (dose: 200.0 mg/kg/injection, schedule: Q04DX002 (ip), vehicle: saline with Tween-80): 87 % of control

Question: How did the T/C (dose: 1.56 mg/kg/injection, schedule: Q01DX009 (ip), vehicle: saline) turn out when `C[N+](C)=C1C=CC(=C2C=CSC=C2)C=C1` was run?
Answer: 117 % of control

Question: And the T/C (dose: 3.12 mg/kg/injection, schedule: Q01DX009 (ip), vehicle: saline)?
Answer: 124 % of control

Question: What about the T/C (dose: 6.25 mg/kg/injection, schedule: Q01DX009 (ip), vehicle: saline) of the same molecule?
Answer: 123 % of control

Question: And the T/C (dose: 12.5 mg/kg/injection, schedule: Q01DX009 (ip), vehicle: saline)?
Answer: 100 % of control

Question: For `O=C(O)c1ccccc1C(=O)NNC(=O)c1ccccc1C(=O)O`, which T/C [13] is on record?
Answer: 100 % of control

Question: And the T/C (dose: 100.0 mg/kg/injection, schedule: Q04DX003 (ip), vehicle: saline with Tween-80)?
Answer: 90 % of control

Question: What about the T/C [14] of the same molecule?
Answer: 95 % of control

Question: And the T/C (dose: 200.0 mg/kg/injection, schedule: Q04DX003 (ip), vehicle: saline with Tween-80)?
Answer: 113 % of control

Question: What about the T/C (dose: 400.0 mg/kg/injection, schedule: Q01DX009 (ip), vehicle: saline with Tween-80) of the same molecule?
Answer: 90 % of control

Question: What about the T/C (dose: 400.0 mg/kg/injection, schedule: Q04DX003 (ip), vehicle: saline with Tween-80) of the same molecule?
Answer: 109 % of control

Question: `CC(=O)OC1CC2CC1C1C3C=CC(C3)C21` (stereo unspecified) was tested. Which T/C [13] did it give?
Answer: 109 % of control

Question: `O=P(NC12CC3CC(CC(C3)C1)C2)(N1CC1)N1CC1` was tested. Which T/C (dose: 2.2 mg/kg/injection, schedule: Q01DX009 (ip), vehicle: Klucel (hydroxypropylcellulose) (HPC)) did it give?
Answer: 120 % of control

Question: And the T/C (dose: 4.4 mg/kg/injection, schedule: Q01DX009 (ip), vehicle: Klucel (hydroxypropylcellulose) (HPC))?
Answer: 183 % of control

Question: And the T/C (dose: 6.6 mg/kg/injection, schedule: Q01DX009 (ip), vehicle: Klucel (hydroxypropylcellulose) (HPC))?
Answer: 238 % of control and 154 % of control and 211 % of control

Question: What about the T/C (dose: 10.0 mg/kg/injection, schedule: Q01DX009 (ip), vehicle: Klucel (hydroxypropylcellulose) (HPC)) of the same molecule?
Answer: 244 % of control and 88 % of control and 122 % of control

Question: What about the T/C (dose: 15.0 mg/kg/injection, schedule: Q01DX009 (ip), vehicle: Klucel (hydroxypropylcellulose) (HPC)) of the same molecule?
Answer: 105 % of control

Question: `COc1cc2c(cc1OC)C(c1ccc(N=Cc3ccc(Cl)c(Cl)c3)cc1)N(C(=S)Nc1cc(Cl)ccc1Cl)CC2` (stereo unspecified) was tested. Which T/C (dose: 25.0 mg/kg/injection, schedule: Q01DX009 (ip), vehicle: saline with Tween-80) did it give?
Answer: 104 % of control

Question: And the T/C [12]?
Answer: 93 % of control and 97 % of control

Question: And the T/C [13]?
Answer: 95 % of control

Question: And the T/C [14]?
Answer: 89 % of control

Question: With `Cc1cc(C)c(CN)cc1C` as the molecule, how does the T/C (dose: 5.0 mg/kg/injection, schedule: Q04DX003 (ip), vehicle: saline with Tween-80) read?
Answer: 100 % of control

Question: What about the T/C (dose: 10.0 mg/kg/injection, schedule: Q04DX003 (ip), vehicle: saline with Tween-80) of the same molecule?
Answer: 100 % of control

Question: What about the T/C (dose: 20.0 mg/kg/injection, schedule: Q04DX003 (ip), vehicle: saline with Tween-80) of the same molecule?
Answer: 100 % of control

Question: How did the T/C [6] turn out when `O=[N+]([O-])c1c(Cl)cccc1-c1c[nH]cc1Cl` was run?
Answer: 95 % of control

Question: What about the T/C [7] of the same molecule?
Answer: 95 % of control

Question: What about the T/C [8] of the same molecule?
Answer: 86 % of control
